According to the NIST ThermoML archive (doi:10.1016/j.jct.2015.09.028):

Columns and labels:
[1] = 93 kPa, Liquid; for viscosity: Concentric cylinders viscometry; for mass density: Vibrating tube method
[2] = molar heat capacity at constant pressure; conditions: Liquid, Flow calorimetry

c1ccc(Oc2ccccc2)cc1 [diphenyl ether]
[1]
Conditions	mass density [kg/m3]	viscosity [mPa·s]
303.15 K	1065.5	3.33
308.15 K	1061.2	2.96
313.15 K	1056.9	2.65
323.15 K	1048.2	2.17
333.15 K	1039.6	1.82
343.15 K	1030.9	1.54
353.15 K	1022.3	1.33
363.15 K	1013.7	1.16
373.15 K	1005.2	1.03

molar heat capacity at constant pressure [J/K/mol], [2]
Conditions	100 kPa	5000 kPa	10000 kPa	15000 kPa	20000 kPa	25000 kPa
313.15 K	274.37	273.52	273.18	272.5	272.16	–
333.15 K	286.97	285.95	284.93	284.59	283.39	282.71
353.15 K	299.05	298.03	296.84	296.33	295.48	294.63
